Patent US6329547A, “Vinylbenzene derivatives” (Santen Pharmaceutical Co., Ltd., priority 1998, dated 2001)

Legend:
[1] = test system: bovine cultured trabecular meshwork cells; assay: Effects on morphology of trabecular meshwork cells (change in cell area by image analysis); format: cell-based; details: Bos taurus, 3 h, 37° C., three hours, read-out: EC50 (concentration required to reduce the cell area of the trabecular meshwork cells by 50%)
Description: A possibility has been reported that drugs having effects of increasing aqueous humor outflow can be found by evaluating effects of drugs on morphology of cultured trabecular meshwork cells (Invest. Ophthalmol. Vis. Sci., 33, 2631-2640 (1992)). Accordingly, effects of the present compounds on morphology of bovine cultured trabecular meshwork cells were studied in the similar manner to the method described in the above-mentioned literature. Experimental Method Morphological changes in bovine cultured trabecular meshwork cells by adding the present compounds were quantitatively evaluated by image analysis. […] Bovine trabecular meshwork cells (passage number 1 to 5) cultured in a basal medium for mammalian cell culture d-MEM (Dulbecco's Modified Eagle Medium, manufactured by Gibco Co., Ltd.) containing fetal bovine serum (10%), amphotericin B (2.5 μg/ml) and gentamicin (50 μg/ml) were treated with a trypsin-EDTA solution (0.05% trypsin, 0.53 mM EDTA·4 Na) 24 hours before the later drug treatment and seeded in a 24-well plate (10^4 cells/well). Twelve hours before the later drug treatment, the cells were washed with phosphate-buffered physiological saline, and then the medium was replaced by D-MEM containing amphotericin B (2.5 μg/ml) and gentamicin (50 μg/ml) (hereinafter referred to as "medium A"). […] A test compound was dissolved in dimethyl sulfoxide (DMSO), and the medium A was added to the solution, followed by sterilizing the solution by filtration. The medium A was further added to the solution to dilute it at a prescribed concentration. This diluted solution was maintained isothermally under a 5% carbon dioxide gas atmosphere at 37° C. for one hour, from one hour before the later drug treatment to prepare a test compound solution. Method of Measurement First, cells were photographed using a well-scanner one hour before the drug treatment. Next, the medium of the cells was replaced by the test compound solution, and the cells were treated with the drug and incubated under a 5% carbon dioxide gas atmosphere at 37° C. for three hours. Then, the same cells as those photographed one hour before the drug treatment were photographed using the well-scanner. Image Analysis Photographed cell images were incorporated from the photographs into an image analysis system with a CCD camera (manufactured by […] Co., Ltd.). Outlines of the incorporated cell images were traced, and areas were measured. Degrees of the morphological changes made by the test compounds on the trabecular meshwork cells are expressed by the following rates of changes in areas (%).

[2] = test system: cynomolgus monkeys (intraocular pressure); assay: Intraocular pressure-lowering effects by anterior chamber administration; format: in vivo, cynomolgus monkey; details: 10 μl of 10^-3 M, 1% DMSO into anterior chamber, vehicle in other eye
Description: Healthy male cynomolgus monkeys weighing 4.0 to 7.0 kg and being four to seven years old were used as experimental animals.
A test compound to be used was dissolved in dimethyl sulfoxide (DMSO), and then phosphate-buffered physiological saline was added to the solution to dilute it at a prescribed concentration (10^-3 M, 1% DMSO), followed by sterilizing the solution by filtration to prepare a test compound solution.
Only vehicle was administered into the other eye.
The intraocular pressure was measured with an applanation tonometer immediately before and prescribed periods after administering the test compound. […]
IOP(D-t): Intraocular pressure of the eye into which the test compound was administered, measured (t) hours after administering the test compound
IOP(D-0): Intraocular pressure of the eye into which the test compound was administered, measured immediately before administering the test compound
IOP(V-t): Intraocular pressure of the eye into which the vehicle was administered, measured (t) hours after administering the vehicle
IOP(V-0): Intraocular pressure of the eye into which the vehicle was administered, measured immediately before administering the vehicle

[3] = test system: laser-induced high intraocular pressure monkey models (intraocular pressure); assay: Intraocular pressure-lowering effects by instillation using laser-induced high intraocular pressure animal models; format: in vivo, cynomolgus monkey; details: for Intraocular pressure change difference: 0.3% solution instilled twice a day, six hours after morning instillation, vs vehicle, average of five eyes
Description: A method of evaluating intraocular pressure-lowering effects of the drugs by instilling them into laser-induced high intraocular pressure monkey models has been reported (Arch. Opththalmol., 105, 249-252 (1987)). Accordingly, intraocular pressure-lowering effects by instilling the present compound were studied in the similar manner to the method described in the above-mentioned literature.
Male cynomolgus monkeys weighing 5 to 6 kg were used for experiment. Five eyes of four monkeys of which intraocular pressure had been elevated by irradiating trabecular meshwork of the monkeys at 100 to 150 spots every one week with an argon laser (Coherent Radiation, Models 800) were used. Laser irradiation conditions were set at 1000 mW and 0.2 sec.
Preparation of Test Compound Solution
A test compound was dissolved in purified water, then concentrated glycerin and sodium chloride were added to the solution to adjust osmotic pressure to 1, and 0.1 M aqueous sodium hydroxide solution was added thereto to adjust pH to 7.4 and to prepare a 0.3% solution. Then, the solution was sterilized by filtration to prepare a test compound solution.
Method of Administering Drugs
First, in order to study effects of a vehicle on intraocular pressure, only vehicle was instilled twice a day (at 10 a.m. and 5 p.m.) for one week continuously. Then, the test compound solution was instilled twice a day (at 10 a.m. and 5 p.m.) for one week continuously.
Intraocular pressure was measured with an applanation tonometer before administering the drug and a prescribed period after the instillation. Chlorpromazine (1 mg/kg) was administered intramuscularly to the cynomolgus monkey one hour before the measurement to sedate the monkey, one drop of a 0.4% oxybuprocaine hydrochloride eyedrops, which is a local anesthetic, was instilled into the monkey, and then the intraocular pressure was measured.
Intraocular pressure change difference (mmHg)=[IOP(D-6)-IOP(D-0)]-[IOP(V-6)-IOP(V-0)]
IOP(D-6): Intraocular pressure measured six hours after the morning instillation of the test compound solution
IOP(D-0): Intraocular pressure measured before administering the test compound solution
IOP(V-6): Intraocular pressure measured six hours after the morning instillation of the vehicle
IOP(V-0): Intraocular pressure measured before administering the vehicle

[4] = test system: trabecular meshwork cells; details: Japanese Examined Patent Publication No. 13013/1995; cited from earlier work

Which EC50 [1] does the source give for C=C(C(=O)c1ccc(/C=C/C(=O)O)cc1)c1c(F)c(F)c(F)c(F)c1F [Compound No. 8-1, 4-[2-(2,3,4,5,6-Pentafluorophenyl)acryloyl]cinnamic acid] here?
Its EC50 is 0.66 µM.

For C=C(C(=O)c1ccc(/C=C/C(=O)O)cc1)c1ccc([N+](=O)[O-])cc1 [Compound No. 8-2, 4-[2-(4-Nitrophenyl)acryloyl]cinnamic acid], which EC50 [1] is on record?
The EC50 was 1.7 µM.

Which EC50 [1] does the source give for C=C(C(=O)c1ccc(/C=C/C(=O)O)cc1)c1ccccc1 [Compound No. 8-7, 4-(2-Phenylacryloyl)cinnamic acid] here?
The EC50 was 0.81 µM.

And the “Maximum intraocular pressure-lowering value” ([2]; average value of six samples)?
The value was 7.0 mmHg.

What about the “Intraocular pressure change difference” value ([3]; 1st day) of the same compound?
Its value is “+5.8 mmHg”.

What about the “Intraocular pressure change difference” value ([3]; 2nd day) of the same compound?
The value was -7.6 mmHg.

And the “Intraocular pressure change difference” value ([3]; 3rd day)?
The value was -6.6 mmHg.

What about the “Intraocular pressure change difference” value ([3]; 4th day) of the same compound?
The value was -1.2 mmHg.

And the “Intraocular pressure change difference” value ([3]; 5th day)?
Its value is -6.6 mmHg.

And the “Intraocular pressure change difference” value ([3]; 6th day)?
Its value is -8.6 mmHg.

And the “Intraocular pressure change difference” value ([3]; 7th day)?
Its value is -2.8 mmHg.

And the “intraocular pressure-lowering effect (in words)” value ([3]; instillation, 0.3% solution twice a day for one week)?
Its value is “excellent intraocular pressure-lowering effect”.

What about the “disorder in an anterior segment of the eye” value ([3]; throughout all instillation periods, 0.3% solution twice a day for one week) of the same compound?
Its value is “No disorder was recognized in an anterior segment of the eye”.

For C=C(C(=O)c1ccc(/C=C(\C)C(=O)O)cc1)c1ccccc1 [Compound No. 8-9, α-Methyl-4-(2-phenylacryloyl)cinnamic acid], which EC50 [1] is on record?
The EC50 was 3.9 µM.

Which EC50 [1] does the source give for C=C(C(=O)c1ccc(/C(C)=C/C(=O)O)cc1)c1ccccc1 [Compound No. 8-10, β-Methyl-4-(2-phenylacryloyl)cinnamic acid] here?
Its EC50 is 2.9 µM.

Which EC50 [1] does the source give for C=C(CC)C(=O)c1ccc(OCC(=O)O)c(Cl)c1Cl [Ethacrynic acid, reference compound] here?
The EC50 was 62 µM.

And the “Maximum intraocular pressure-lowering value” ([2]; average value of five samples)?
Its value is 2.0 mmHg.

And the “effect on intraocular pressure and trabecular meshwork cells reported in the literature” value [4]?
The value was “lowering intraocular pressure by making a morphological change in trabecular meshwork cells and increasing the rate of aqueous humor outflow”.
